US20230398130A1, “METHODS AND COMPOSITIONS FOR DIFFERENTIATING STEM CELLS” (Massachusetts Institute of Technology, priority 2020, published 2023)

How the values were obtained:
ISC-enriched organoids [1] = assay: Primary screen, 384-well 2.5-D organoid differentiation (ENR+CD, 6 days): basal lysozyme secretion (LYZ.NS); type: cell-based, murine; conditions: for Dose.FC.LYZ.NS / Z.LYZ.NS: primary screen; for Dose.FC.LYZ.NS: FC vs plate median; for Dose.FC.LYZ.NS (log 2 fold change, basal lysozyme secretion): vs plate median
Text: (§1) High-throughput screening.

ISC-enriched organoids [2] = assay: Primary screen, 384-well 2.5-D organoid differentiation (ENR+CD, 6 days, Target Selective Inhibitor Library, vs whole-plate median): ATP (CellTiter-Glo 3D, CTG); conditions: for Dose.FC.CTG / Z.CTG: primary screen; for Dose.FC.CTG: FC vs plate median; for Dose.FC.CTG (log 2 fold change, ATP): vs plate median
ISC-enriched organoids [3] = assay: Primary screen, 384-well 2.5-D organoid differentiation (ENR+CD, 6 days): carbachol-induced lysozyme secretion (LYZ.S); type: cell-based, murine; conditions: for Dose.FC.LYZ.S: primary screen, FC vs plate median; for Dose.FC.LYZ.S (log 2 fold change, carbachol-induced lysozyme secretion): vs plate median
Text: as §1

[4] = Dose 10.00 uM, standard z score
[5] = dose 0.08 uM (1st of 4 lines per treatment; dose not printed in this part)
[6] = dose 0.40 uM (2nd of 4 lines per treatment; dose not printed in this part)
[7] = dose 2.00 uM (3rd of 4 lines per treatment; dose not printed in this part)
[8] = dose 10.00 uM (4th of 4 lines per treatment; dose not printed in this part)
[9] = dose 0.08 uM, standard z score of FC
[10] = dose 0.40 uM, standard z score of FC
[11] = dose 2.00 uM, standard z score of FC
[12] = dose 10.00 uM, standard z score of FC

## Cc1cc(SCc2sc(-c3ccc(C(F)(F)F)c(F)c3)nc2C)ccc1OCC(=O)O [GW0742]
ISC-enriched organoids [1]; Dose 0.08 uM
  Dose.FC.LYZ.NS: 0.052 log 2 fold change
ISC-enriched organoids [1]; Dose 0.08 uM, standard z score
  Z.LYZ.NS: 0.454
ISC-enriched organoids [1]; Dose 0.40 uM
  Dose.FC.LYZ.NS: 0.045 log 2 fold change
ISC-enriched organoids [1]; Dose 0.40 uM, standard z score
  Z.LYZ.NS: 0.390
ISC-enriched organoids [1]; Dose 2.00 uM
  Dose.FC.LYZ.NS: 0.026 log 2 fold change
ISC-enriched organoids [1]; Dose 2.00 uM, standard z score
  Z.LYZ.NS: 0.231
ISC-enriched organoids [1]; Dose 10.00 uM
  Dose.FC.LYZ.NS: −0.152 log 2 fold change
ISC-enriched organoids [1]; [4]
  Z.LYZ.NS: −1.322
ISC-enriched organoids [2]; Dose 0.08 uM
  Dose.FC.CTG: −0.751 log 2 fold change
ISC-enriched organoids [2]; Dose 0.08 uM, standard z score
  Z.CTG: −1.794
ISC-enriched organoids [2]; Dose 0.40 uM
  Dose.FC.CTG: −0.489 log 2 fold change
ISC-enriched organoids [2]; Dose 0.40 uM, standard z score
  Z.CTG: −1.167
ISC-enriched organoids [2]; Dose 2.00 uM
  Dose.FC.CTG: −0.249 log 2 fold change
ISC-enriched organoids [2]; Dose 2.00 uM, standard z score
  Z.CTG: −0.596
ISC-enriched organoids [2]; Dose 10.00 uM
  Dose.FC.CTG: −0.451 log 2 fold change
ISC-enriched organoids [2]; [4]
  Z.CTG: −1.078
ISC-enriched organoids [3]; Dose 0.08 uM
  Dose.FC.LYZ.S: 0.048 log 2 fold change
ISC-enriched organoids [3]; Dose 0.40 uM
  Dose.FC.LYZ.S: 0.106 log 2 fold change
ISC-enriched organoids [3]; Dose 2.00 uM
  Dose.FC.LYZ.S: 0.014 log 2 fold change
ISC-enriched organoids [3]; Dose 10.00 uM
  Dose.FC.LYZ.S: −0.183 log 2 fold change

## CC(C)C[C@@H](C(=O)N[C@H](C(=O)OC1CCCC1)c1ccccc1)[C@H](O)C(=O)NO [Tosedostat (CHR2797)]
ISC-enriched organoids [1]; dose 0.08 uM
  Z.LYZ.NS (standard z score): −0.022
  Dose.FC.LYZ.NS (log 2 fold change, basal lysozyme secretion): −0.002
ISC-enriched organoids [1]; dose 0.40 uM
  Z.LYZ.NS (standard z score): −0.925
  Dose.FC.LYZ.NS (log 2 fold change, basal lysozyme secretion): −0.106
ISC-enriched organoids [1]; dose 2.00 uM
  Z.LYZ.NS (standard z score): −0.432
  Dose.FC.LYZ.NS (log 2 fold change, basal lysozyme secretion): −0.050
ISC-enriched organoids [1]; dose 10.00 uM
  Z.LYZ.NS (standard z score): −1.499
  Dose.FC.LYZ.NS (log 2 fold change, basal lysozyme secretion): −0.172
ISC-enriched organoids [2]; dose 0.08 uM
  Z.CTG (standard z score): −0.232
  Dose.FC.CTG (log 2 fold change, ATP): −0.097
ISC-enriched organoids [2]; dose 0.40 uM
  Z.CTG (standard z score): 0.123
  Dose.FC.CTG (log 2 fold change, ATP): 0.051
ISC-enriched organoids [2]; dose 2.00 uM
  Z.CTG (standard z score): −0.480
  Dose.FC.CTG (log 2 fold change, ATP): −0.201
ISC-enriched organoids [2]; dose 10.00 uM
  Z.CTG (standard z score): −1.117
  Dose.FC.CTG (log 2 fold change, ATP): −0.468
ISC-enriched organoids [3]; dose 0.08 uM
  Dose.FC.LYZ.S (log 2 fold change, carbachol-induced lysozyme secretion): −0.027
ISC-enriched organoids [3]; dose 0.40 uM
  Dose.FC.LYZ.S (log 2 fold change, carbachol-induced lysozyme secretion): −0.134
ISC-enriched organoids [3]; dose 2.00 uM
  Dose.FC.LYZ.S (log 2 fold change, carbachol-induced lysozyme secretion): −0.128
ISC-enriched organoids [3]; dose 10.00 uM
  Dose.FC.LYZ.S (log 2 fold change, carbachol-induced lysozyme secretion): −0.276

## C=C1C(=O)O[C@H]2[C@H]1CC/C(C)=C/CC[C@@]1(C)O[C@@H]21 [(−)-Parthenolide]
ISC-enriched organoids [1]; [5]
  SSMD.LYZ.NS_Rep (strictly standardized mean difference): 0.601
ISC-enriched organoids [1]; [6]
  SSMD.LYZ.NS_Rep (strictly standardized mean difference): 0.480
ISC-enriched organoids [1]; [7]
  SSMD.LYZ.NS_Rep (strictly standardized mean difference): 0.920
ISC-enriched organoids [1]; [8]
  SSMD.LYZ.NS_Rep (strictly standardized mean difference): 0.998
ISC-enriched organoids [1]; dose 0.08 uM, ENR+CD 6 days
  Dose.FC.LYZ.NS: 0.058 log 2 fold change
ISC-enriched organoids [1]; [9]
  Z.LYZ.NS: 0.506
ISC-enriched organoids [1]; dose 0.40 uM, ENR+CD 6 days
  Dose.FC.LYZ.NS: 0.067 log 2 fold change
ISC-enriched organoids [1]; [10]
  Z.LYZ.NS: 0.583
ISC-enriched organoids [1]; dose 2.00 uM, ENR+CD 6 days
  Dose.FC.LYZ.NS: 0.089 log 2 fold change
ISC-enriched organoids [1]; [11]
  Z.LYZ.NS: 0.776
ISC-enriched organoids [1]; dose 10.00 uM, ENR+CD 6 days
  Dose.FC.LYZ.NS: 0.133 log 2 fold change
ISC-enriched organoids [1]; [12]
  Z.LYZ.NS: 1.159
ISC-enriched organoids [2]; [5]
  SSMD.CTG_Rep (strictly standardized mean difference): 0.498
ISC-enriched organoids [2]; [6]
  SSMD.CTG_Rep (strictly standardized mean difference): 0.736
ISC-enriched organoids [2]; [7]
  SSMD.CTG_Rep (strictly standardized mean difference): 0.482
ISC-enriched organoids [2]; [8]
  SSMD.CTG_Rep (strictly standardized mean difference): 0.257
ISC-enriched organoids [2]; dose 0.08 uM, ENR+CD 6 days
  Dose.FC.CTG: 0.135 log 2 fold change
ISC-enriched organoids [2]; [9]
  Z.CTG: 0.322
ISC-enriched organoids [2]; dose 0.40 uM, ENR+CD 6 days
  Dose.FC.CTG: 0.228 log 2 fold change
ISC-enriched organoids [2]; [10]
  Z.CTG: 0.544
ISC-enriched organoids [2]; dose 2.00 uM, ENR+CD 6 days
  Dose.FC.CTG: 0.157 log 2 fold change
ISC-enriched organoids [2]; [11]
  Z.CTG: 0.376
ISC-enriched organoids [2]; dose 10.00 uM, ENR+CD 6 days
  Dose.FC.CTG: 0.157 log 2 fold change
ISC-enriched organoids [2]; [12]
  Z.CTG: 0.374
ISC-enriched organoids [3]; [5]
  SSMD.LYZ.S_Rep (strictly standardized mean difference): 0.679
  Z.LYZ.S (standard z score): 0.799
ISC-enriched organoids [3]; [6]
  SSMD.LYZ.S_Rep (strictly standardized mean difference): 0.763
  Z.LYZ.S (standard z score): 1.067
ISC-enriched organoids [3]; [7]
  SSMD.LYZ.S_Rep (strictly standardized mean difference): 0.506
  Z.LYZ.S (standard z score): 0.441
ISC-enriched organoids [3]; [8]
  SSMD.LYZ.S_Rep (strictly standardized mean difference): 0.345
  Z.LYZ.S (standard z score): 0.530
ISC-enriched organoids [3]; dose 0.08 uM, ENR+CD 6 days
  Dose.FC.LYZ.S: 0.124 log 2 fold change
ISC-enriched organoids [3]; dose 0.40 uM, ENR+CD 6 days
  Dose.FC.LYZ.S: 0.165 log 2 fold change
ISC-enriched organoids [3]; dose 2.00 uM, ENR+CD 6 days
  Dose.FC.LYZ.S: 0.068 log 2 fold change
ISC-enriched organoids [3]; dose 10.00 uM, ENR+CD 6 days
  Dose.FC.LYZ.S: 0.082 log 2 fold change

## VU 0364770
ISC-enriched organoids [1]; dose 0.08 uM
  Z.LYZ.NS (standard z score): 1.350
  Dose.FC.LYZ.NS (log 2 fold change, basal lysozyme secretion): 0.155
ISC-enriched organoids [1]; dose 0.40 uM
  Z.LYZ.NS (standard z score): 0.736
  Dose.FC.LYZ.NS (log 2 fold change, basal lysozyme secretion): 0.085
ISC-enriched organoids [1]; dose 2.00 uM
  Z.LYZ.NS (standard z score): 1.020
  Dose.FC.LYZ.NS (log 2 fold change, basal lysozyme secretion): 0.117
ISC-enriched organoids [1]; dose 10.00 uM
  Z.LYZ.NS (standard z score): 0.884
  Dose.FC.LYZ.NS (log 2 fold change, basal lysozyme secretion): 0.102
ISC-enriched organoids [2]; dose 0.08 uM
  Z.CTG (standard z score): 0.031
  Dose.FC.CTG (log 2 fold change, ATP): 0.013
ISC-enriched organoids [2]; dose 0.40 uM
  Z.CTG (standard z score): 0.204
  Dose.FC.CTG (log 2 fold change, ATP): 0.085
ISC-enriched organoids [2]; dose 2.00 uM
  Z.CTG (standard z score): 0.199
  Dose.FC.CTG (log 2 fold change, ATP): 0.083
ISC-enriched organoids [2]; dose 10.00 uM
  Z.CTG (standard z score): −0.246
  Dose.FC.CTG (log 2 fold change, ATP): −0.103
ISC-enriched organoids [3]; dose 0.08 uM
  Dose.FC.LYZ.S (log 2 fold change, carbachol-induced lysozyme secretion): 0.082
ISC-enriched organoids [3]; dose 0.40 uM
  Dose.FC.LYZ.S (log 2 fold change, carbachol-induced lysozyme secretion): 0.125
ISC-enriched organoids [3]; dose 2.00 uM
  Dose.FC.LYZ.S (log 2 fold change, carbachol-induced lysozyme secretion): 0.139
ISC-enriched organoids [3]; dose 10.00 uM
  Dose.FC.LYZ.S (log 2 fold change, carbachol-induced lysozyme secretion): 0.066
